From patent publication US20240327406A1, “POTASSIUM CHANNEL MODULATORS” (Autifony Therapeutics Limited, priority 2021, published 2024) come the findings set out here.

This experiment deals with T1, human Kv3.1 channels (hKv3.1) (Homo sapiens, UniProt P48547).
T1 sequence (P48547 1-501 limits assumed): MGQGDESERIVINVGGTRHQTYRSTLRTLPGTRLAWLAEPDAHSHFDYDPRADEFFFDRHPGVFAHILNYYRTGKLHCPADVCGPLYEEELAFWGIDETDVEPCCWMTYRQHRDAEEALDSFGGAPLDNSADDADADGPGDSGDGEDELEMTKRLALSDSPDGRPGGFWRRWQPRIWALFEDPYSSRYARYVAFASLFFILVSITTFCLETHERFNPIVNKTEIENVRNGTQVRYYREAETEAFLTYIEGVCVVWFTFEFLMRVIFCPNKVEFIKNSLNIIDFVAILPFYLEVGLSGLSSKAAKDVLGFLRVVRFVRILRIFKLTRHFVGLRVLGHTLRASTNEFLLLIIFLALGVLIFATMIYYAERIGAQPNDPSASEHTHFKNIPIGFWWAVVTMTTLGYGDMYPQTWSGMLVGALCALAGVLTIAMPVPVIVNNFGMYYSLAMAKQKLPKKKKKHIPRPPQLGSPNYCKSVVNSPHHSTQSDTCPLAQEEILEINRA
Nature of the experiment: Measurement of Kv3 channel modulation: Kv3.1 assay (IonWorks Quattro whole-cell electrophysiology). The class given is cell-based. As to conditions: for Kv3.1 max R %: normalised to maximum effect of reference compound (50 microM). On the procedure:
The ability of the compounds of the invention to modulate the voltage-gated potassium channel subtypes Kv3.4/Kv3.3/Kv3.2/Kv3.1 may be determined using the following assay. Analogous methods may be used to investigate the ability of the compounds of the invention to modulate other channel subtypes.
Human embryonic kidney (HEK)-hKv3.1 cell line is generated by transfecting HEK-293 cells with an expression vector with human Kv3.1 (NM_004976.4). Cells are cultured with MEM supplemented with 10% Heat-Inactivated FBS, 2 mM L-glutamine, 1% Penicillin-Streptomycin, and 0.6 mg/ml of Geneticin (G418). HEK-hKv3.1b cells were amplified in T175 cm2 flask at 37° C. with 5% CO2, using MEM amplification medium, containing the G418 selection antibiotic (0.6 mg/ml). Cells were detached every 3-4 days, using DPBS to wash twice the flask, then TrypLE to dislodge the cells, and re-plated at a density of 2-4×10^6 cells/flask.
The day of the experiment, cells are removed from the incubator and the culture medium removed. Cells are washed with 5 ml of Dulbecco's PBS (DPBS) calcium and magnesium free and detached by the addition of 3 ml Versene (Invitrogen, Italy) followed by a brief incubation at 37° C. for 5 minutes. The flask is tapped to dislodge cells and 10 ml of DPBS containing calcium and magnesium is added to prepare a cell suspension. The cell suspension is then placed into a 15 ml centrifuge tube and centrifuged for 2 min at 1200 rpm. After centrifugation, the supernatant is removed and the cell pellet re-suspended in 4 ml of DPBS containing calcium and magnesium using a 5 ml pipette to break up the pellet. Cell suspension volume is then corrected to give a cell concentration for the assay of approximately 3 million cells per ml.
Experiments are conducted at r.t. using IonWorks Quattro™ planar array electrophysiology technology (Molecular Devices Corp.) with PatchPlate™ PPC. Stimulation protocols and data acquisition are carried out using a microcomputer (Dell Pentium 4). Planar electrode hole resistances (Rp) are determined by applying a 10 mV voltage step across each well. These measurements are performed before cell addition. After cell addition and seal formation, a seal test is performed by applying a voltage step from −80 mV to −70 mV for 160 ms. Following this, amphotericin-B solution is added to the intracellular face of the electrode to achieve intracellular access. Cells are held at −70 mV. Leak subtraction is conducted in all experiments by applying 50 ms hyperpolarizing (10 mV) prepulses to evoke leak currents followed by a 20 ms period at the holding potential before test pulses.
For hKv3.2 and hKv3.1, assays from the holding potential of −70 mV, a first test pulse at −15 mV was applied for 100 ms and after 100 ms at −70 mV a second pulse at +40 mV was applied for 50 ms. Cells were then maintained for 100 ms at −100 mV and another pulse from […] to +40 mV (duration 50 ms) was applied to clamp later the voltage at −40 mV during 200 ms
The intracellular solution contains the following (in mM): K-gluconate 100, KCl 54, MgCl2 3.2, HEPES 5, adjusted to pH 7.3 with KOH. Amphotericin-B solution is prepared as 50 mg/ml stock solution in DMSO and diluted to a final working concentration of 0.1 mg/ml in intracellular solution.
Compounds of use in the invention (or reference compounds such as N-cyclohexyl-N-[(7,8-dimethyl-2-oxo-1,2-dihydro-3-quinolinyl)methyl]-N′-phenylurea) are dissolved in dimethylsulfoxide (DMSO) at a stock concentration of 10 mM. […] Each dilution (1 μL) is transferred to another compound plate and external solution containing 0.05% pluronic acid (66 μL) is added. 3.5 μL from each plate containing a compound of the invention is added and incubated with the cells during the IonWorks Quattro™ experiment. The final assay dilution is 200 and the final compound concentrations are in the range 50 μM to 50 nM.
(In general: Patch clamp records ionic current or voltage across a cell membrane.)

Where [1] appears, read: Table 2, Example compounds, rounded to one decimal place, some compounds with two data sets (n given in cell), read-out: Kv3.1 pEC50 (converted).
Where [2] appears, read: Table 1, Reference Examples, current at -15 mV step, normalised to 50 microM reference compound, read-out: Kv3.1 pEC50 (converted).
The mark [3] stands for this setting: Table 3, Reference Examples and corresponding Examples, rounded to one decimal place, read-out: Kv3.1 pEC50 (converted).

The structures appear in SMILES notation. Values joined by “and” are separate entries in the source; they are usually repeats but may differ in a detail not shown here. Equal entries are not always repeated. Where two headings read alike, the source gives them in different places. A value given as a limit tells only on which side of the number the result lay.

As for `Cc1ncc2[nH]c(=O)n(-c3ccc(Oc4ccc(C)c5c4C4(CC4)CO5)nc3)c2n1` [Example 25, 2-methyl-9-[6-(7-methylspiro[2H-benzofuran-3,1′-cyclopropane]-4-yl)oxy-3-pyridyl]-7H-purin-8-one], the “Kv3.1 max R %” value (Table 2, Example compounds) worked out at 190%. Further, the EC50 under setting [1] was 316 nM.

Consider `Cc1ncc2[nH]c(=O)n(-c3ccc(Oc4ccc(C)c(OC(F)(F)F)c4)nc3)c2n1` [Example 27, 2-methyl-9-[6-[4-methyl-3-(trifluoromethoxy)phenoxy]-3-pyridyl]-7H-purin-8-one], for which the “Kv3.1 max R %” value (Table 2, Example compounds) was 134% and 138%. The EC50 under setting [1] is 1580 nM and 1260 nM.

In the case of `COc1cccc(Oc2ccc(-n3c(=O)[nH]c4cnc(C)nc43)cn2)c1` [Example 28, 9-[6-(3-methoxyphenoxy)-3-pyridyl]-2-methyl-7H-purin-8-one], where the note is “Table 2, Example compounds”, the “Kv3.1 max R %” value was found to be 140%. For the same compound, the EC50 under setting [1] was 3980 nM.

`Cc1ccc(Oc2ccc(-n3c(=O)[nH]c4cncnc43)cn2)c2c1OCC21CC1` [Example 29, 9-[6-(7-methylspiro[2H-benzofuran-3,1′-cyclopropane]-4-yl)oxy-3-pyridyl]-7H-purin-8-one]: for the setting “Table 2, Example compounds”, the “Kv3.1 max R %” value is listed as 117%. In addition, under setting [1], the EC50 was 158 nM.

In the case of `Cc1ncc2[nH]c(=O)n(-c3ccc(Oc4cccc5c4C(C)(C)CO5)nc3)c2n1` [Example 30, 9-[6-[(3,3-dimethyl-2H-benzofuran-4-yl)oxy]-3-pyridyl]-2-methyl-7H-purin-8-one], for the setting “Table 2, Example compounds”, the “Kv3.1 max R %” value was 123%. Further, the EC50 under setting [1] is 126 nM.

`Cc1ccc(Oc2ncc(-n3c(=O)[nH]c4cccnc43)cn2)c2c1OCC21CC1` [Example 31, 3-[2-(7-methylspiro[2H-benzofuran-3,1′-cyclopropane]-4-yl)oxypyrimidin-5-yl]-1H-imidazo[4,5-b]pyridine-2-one]: the “Kv3.1 max R %” value (Table 2, Example compounds) came to 217%. Besides, the EC50 under setting [1] was 200 nM.

As for `O=c1[nH]c2c[nH]nc2n1-c1ccc(Oc2cccc3c2C2(CC2)CO3)nc1` [Example 34, 6-(6-spiro[2H-benzofuran-3,1′-cyclopropane]-4-yloxy-3-pyridyl)-2,4-dihydroimidazo[4,5-c]pyrazol-5-one], for the setting “Table 2, Example compounds”, the “Kv3.1 max R %” value is 128% and 131%. In addition, the “Kv3.1 pEC50” value (Table 2, Example compounds, rounded to one decimal place, some compounds with two data sets (n given in cell)) was 5.0 (n = 2). Under setting [1], the EC50 was 10000 nM.

`Cc1ccc(Oc2ccc(-n3c(=O)[nH]c4ccncc43)cn2)c2c1OCC21CC1` [Example 35, 3-[6-(7-methylspiro[2H-benzofuran-3,1′-cyclopropane]-4-yl)oxy-3-pyridyl]-1H-imidazo[4,5-c]pyridin-2-one]: the “Kv3.1 max R %” value (Table 2, Example compounds) is 225%. Under setting [1], the EC50 is 1000 nM.

As for `O=c1[nH]c2ncccc2n1-c1ccc(Oc2cccc3c2C2(CC2)CO3)nc1` [Example 36, 1-(6-spiro[2H-benzofuran-3,1′-cyclopropane]-4-yloxy-3-pyridyl)-3H-imidazo[4,5-b]pyridin-2-one], the EC50 is, setting by setting: (Kv3.1 pEC50, Table 2, Example compounds, rounded to one decimal place, some compounds with two data sets (n given in cell)) 631 nM; (Kv3.1 pEC50, Table 3, Reference Examples and corresponding Examples, rounded to one decimal place) 631 nM. The “Kv3.1 max R %” value (Table 2, Example compounds) was 113%.

In the case of `Cc1ccc2[nH]c(=O)n(-c3cnc(Oc4cccc5c4C4(CC4)CO5)cn3)c2n1` [Example 37, 5-methyl-3-(5-spiro[2H-benzofuran-3,1′-cyclopropane]-4-yloxypyrazin-2-yl)-1H-imidazo[4,5-b]pyridin-2-one], where the note is “Table 2, Example compounds”, the “Kv3.1 max R %” value was found to be 124%. Besides, the EC50 under setting [1] was 126 nM.

`Cc1cnc2c(c1)[nH]c(=O)n2-c1cnc(Oc2cccc3c2C2(CC2)CO3)cn1` [Example 38, 6-methyl-3-(5-spiro[2H-benzofuran-3,1′-cyclopropane]-4-yloxypyrazin-2-yl)-1H-imidazo[4,5-b]pyridin-2-one]: the “Kv3.1 max R %” value (Table 2, Example compounds) came to 122%. The EC50 under setting [1] is 200 nM.

For the compound `Cc1ccc(Oc2ncc(-n3c(=O)[nH]c4cccnc43)cn2)c2c1OCC2(C)C` [Example 39, 3-[2-[(3,3,7-trimethyl-2H-benzofuran-4-yl)oxy]pyrimidin-5-yl]-1H-imidazo[4,5-b]pyridin-2-one], the “Kv3.1 max R %” value (Table 2, Example compounds) is given as 215%. In addition, under setting [1], the EC50 was 1580 nM.

In the case of `CC[C@H]1NC(=O)N(c2ccc(Oc3ccc(C)c4c3C3(CC3)CO4)nc2)C1=O` [RE1, reference compound], under “Table 1, Reference Examples”, the “Kv3.1 max R %” value was 157%.

Take `CC[C@@H]1CN(c2ccc(Oc3ccc(C)c4c3C3(CC3)CO4)nc2)C(=O)N1` [RE2, reference compound]: the EC50 under setting [2] was 20000 nM. In addition, for the setting “Table 1, Reference Examples”, the “Kv3.1 max R %” value worked out at 92%.

In the case of `Cc1ccc(Oc2ccc(N3C(=O)NC4COCC43)cn2)c2c1OCC21CC1` (stereo not shown) [RE3, reference compound], the EC50 under setting [2] is more than 50100 nM. The “Kv3.1 max R %” value (Table 1, Reference Examples) stood at 30%.

As to `Cc1ccc(Oc2ncc(N3C(=O)NC(C)(C)C3=O)cn2)c2c1OCC21CC1` [RE4, reference compound], the “Kv3.1 max R %” value (Table 1, Reference Examples) worked out at 158%.

As to `Cc1ccc(Oc2ccc(N3C(=O)CC(C)(C)NC3=O)cn2)c2c1OCC21CC1` [RE5, reference compound], the EC50 under setting [2] is 11200 nM. Further, under “Table 1, Reference Examples”, the “Kv3.1 max R %” value was found to be 90%.

For `Cc1ccc(Oc2ccc(N3C(=O)NCC(C)(C)C3=O)cn2)c2c1OCC21CC1` [RE6, reference compound], the EC50 under setting [2] is 25100 nM. In addition, the “Kv3.1 max R %” value (Table 1, Reference Examples) is 111%.

As to `Cc1ccc(Oc2ccc(N3CCNC3=O)cn2)c2c1OCC21CC1` [RE7, reference compound], the EC50 under setting [2] is 39800 nM. For the same compound, the “Kv3.1 max R %” value (Table 1, Reference Examples) stood at 29%.

As for `Cc1ccc(Oc2ccc(N3C(=O)CCNC3=O)cn2)c2c1OCC21CC1` [RE8, reference compound], under setting [2], the EC50 was 25100 nM. For the same compound, for the setting “Table 1, Reference Examples”, the “Kv3.1 max R %” value is 140%.

On to `CC1(C)COc2cccc(Oc3ncc(-n4c(=O)[nH]c5cnccc54)cn3)c21` [RE9, reference compound], for which the EC50 under setting [3] was more than 50100 nM.

`O=c1[nH]c2cnccc2n1-c1ccc(Oc2cccc(OC(F)(F)F)c2)nc1` [RE10, reference compound]: under setting [3], the EC50 was 2510 nM.

For `Cc1ccc(Oc2ccc(N3C(=O)NCc4cccnc43)cn2)c2c1OCC21CC1` [RE11, reference compound], the EC50 under setting [3] was 2000 nM.
